In ChEMBL document CHEMBL2150981, “Discovery and optimization of benzotriazine di-N-oxides targeting replicating and nonreplicating Mycobacterium tuberculosis” (J Med Chem, 2012):
Values after ≈ are worked out from the molar mass of the structure shown.

How the values were obtained:
[1] = Selectivity index, ratio of CC50 for Vero cells to MIC90 for Mycobacterium tuberculosis H37Rv isolate SRI; assay type: functional
[2] = system: Vero; assay: Cytotoxicity against african green monkey Vero cells after 72 hrs by CellTiterGlo assay; conditions: chlorocebus sabaeus, vero, 72 h
[3] = system: Mycobacterium tuberculosis; assay: Antitubercular activity against Mycobacterium tuberculosis H37Rv isolate SRI after 5 days by resazurin-based microplate assay; assay type: functional; conditions: 120 h
[4] = system: Mycobacterium tuberculosis; assay: Antitubercular activity against Mycobacterium tuberculosis H37Rv incubated for 10 days in anaerobic condition followed by 48 hrs incubation in aerobic condition by LORA assay; assay type: functional
[5] = system: Mycobacterium tuberculosis; assay: Antitubercular activity against Mycobacterium tuberculosis H37Rv isolate ITR after 7 days by luminescence spectrometry; assay type: functional; conditions: 168 h

SMILES | Selectivity Index [1] | CC50 [2] | MIC90 [3] | MIC90 [4] | MIC90 [5]
[O-][n+]1nc(NC2CC2)[n+]([O-])c2ccccc21 | 8.3 | 21 µg/mL (≈ 96.2 µM) | 2.5 µg/mL (≈ 11.5 µM) | 1.8 µg/mL (≈ 8.25 µM) | 
[O-][n+]1nc(NC2CCCC2)[n+]([O-])c2ccccc21 | 4.2 | 10 µg/mL (≈ 40.6 µM) | 2.5 µg/mL (≈ 10.2 µM) | 0.68 µg/mL (≈ 2.76 µM) | 3.6 µg/mL (≈ 14.6 µM)
CC(=O)Nc1cc(/C=C\c2ccc([N+](=O)[O-])o2)ns1 | >50 | > 50 µg/mL | 0.98 µg/mL (≈ 3.51 µM) | 3.7 µg/mL (≈ 13.2 µM) | 3.8 µg/mL (≈ 13.6 µM)
COCCNC(=O)c1ccc2c(c1)[n+]([O-])c(O)c(C#N)[n+]2[O-] |  | > 16 µg/mL | > 20 µg/mL | > 32 µg/mL | 
Cc1c(N2CCCC2)[n+]([O-])c2ccccc2[n+]1[O-] |  | > 16 µg/mL | > 10 µg/mL | > 32 µg/mL | 
[O-][n+]1nc(NC2CCC2)[n+]([O-])c2ccccc21 | 7.1 | 8.9 µg/mL (≈ 38.3 µM) | 1.2 µg/mL (≈ 5.17 µM) | 0.84 µg/mL (≈ 3.62 µM) | 0.94 µg/mL (≈ 4.05 µM)
CC(C)(C)C1CCC(Nc2n[n+]([O-])c3ccccc3[n+]2[O-])CC1 (stereo unspecified) | 3.7 | 2.3 µg/mL (≈ 7.27 µM) | 0.62 µg/mL (≈ 1.96 µM) | < 0.12 µg/mL | 0.22 µg/mL (≈ 0.695 µM)
CC(C)CCC(C)Nc1n[n+]([O-])c2ccccc2[n+]1[O-] (stereo unspecified) | 3.3 | 4.1 µg/mL (≈ 14.8 µM) | 1.2 µg/mL (≈ 4.34 µM) | 0.38 µg/mL (≈ 1.38 µM) | 0.52 µg/mL (≈ 1.88 µM)
[O-][n+]1nc(N[C@@H]2C[C@H]3CC[C@@H]2C3)[n+]([O-])c2ccccc21 | 5.5 | 3.4 µg/mL (≈ 12.5 µM) | 0.62 µg/mL (≈ 2.28 µM) | 0.42 µg/mL (≈ 1.54 µM) | 0.6 µg/mL (≈ 2.2 µM)
CCNc1n[n+]([O-])c2cc(F)ccc2[n+]1[O-] | 7.3 | 4.6 µg/mL (≈ 20.5 µM) | 0.62 µg/mL (≈ 2.77 µM) | 0.75 µg/mL (≈ 3.35 µM) | 0.35 µg/mL (≈ 1.56 µM)
[O-][n+]1nc(NC2CC2)[n+]([O-])c2ccc(F)cc21 | 2.2 | 1.3 µg/mL (≈ 5.5 µM) | 0.31 µg/mL (≈ 1.31 µM) | 3.5 µg/mL (≈ 14.8 µM) | 0.93 µg/mL (≈ 3.94 µM)
[O-][n+]1nc(NC2CCC2)[n+]([O-])c2ccc(F)cc21 | 10 | 1.6 µg/mL (≈ 6.39 µM) | 0.31 µg/mL (≈ 1.24 µM) | 0.88 µg/mL (≈ 3.52 µM) | 0.4 µg/mL (≈ 1.6 µM)
[O-][n+]1nc(NC2CCCC2)[n+]([O-])c2ccc(F)cc21 | 7.3 | 2.3 µg/mL (≈ 8.7 µM) | 0.31 µg/mL (≈ 1.17 µM) | 0.34 µg/mL (≈ 1.29 µM) | 0.33 µg/mL (≈ 1.25 µM)
[O-][n+]1nc(NC2CCCCC2)[n+]([O-])c2ccc(F)cc21 | <4 | < 2.5 µg/mL | 0.62 µg/mL (≈ 2.23 µM) | 0.47 µg/mL (≈ 1.69 µM) | 0.68 µg/mL (≈ 2.44 µM)
[O-][n+]1nc(N[C@@H]2C[C@H]3CC[C@@H]2C3)[n+]([O-])c2ccc(F)cc21 | <4 | < 2.5 µg/mL | 0.31 µg/mL (≈ 1.07 µM) | 0.21 µg/mL (≈ 0.723 µM) | < 0.12 µg/mL
CCNc1n[n+]([O-])c2cc(Cl)ccc2[n+]1[O-] | 2.1 | 2.6 µg/mL (≈ 10.8 µM) | 1.2 µg/mL (≈ 4.99 µM) | 0.41 µg/mL (≈ 1.7 µM) | < 0.12 µg/mL
[O-][n+]1nc(NC2CC2)[n+]([O-])c2ccc(Cl)cc21 | 2.2 | 1.3 µg/mL (≈ 5.15 µM) | 0.62 µg/mL (≈ 2.45 µM) | 0.22 µg/mL (≈ 0.871 µM) | 0.21 µg/mL (≈ 0.831 µM)
[O-][n+]1nc(NC2CCC2)[n+]([O-])c2ccc(Cl)cc21 | 10 | 1.6 µg/mL (≈ 6 µM) | 0.15 µg/mL (≈ 0.562 µM) | < 0.12 µg/mL | 
[O-][n+]1nc(NC2CCCCC2)[n+]([O-])c2ccc(Cl)cc21 | 4.2 | 2.6 µg/mL (≈ 8.82 µM) | 0.62 µg/mL (≈ 2.1 µM) | 0.63 µg/mL (≈ 2.14 µM) | 0.94 µg/mL (≈ 3.19 µM)

SMILES | Selectivity Index [1] | CC50 [2] | MIC90 [3] | MIC90 [4] | MIC90 [5]
[O-][n+]1nc(N[C@@H]2C[C@H]3CC[C@@H]2C3)[n+]([O-])c2ccc(Cl)cc21 | 7.3 | 1.1 µg/mL (≈ 3.59 µM) | 0.15 µg/mL (≈ 0.489 µM) | 0.23 µg/mL (≈ 0.75 µM) | 0.22 µg/mL (≈ 0.717 µM)
CCNc1n[n+]([O-])c2cc(Br)ccc2[n+]1[O-] | 6.7 | 4.2 µg/mL (≈ 14.7 µM) | 0.62 µg/mL (≈ 2.17 µM) | 0.46 µg/mL (≈ 1.61 µM) | 0.49 µg/mL (≈ 1.72 µM)
[O-][n+]1nc(NC2CCC2)[n+]([O-])c2ccc(Br)cc21 | 24 | 3.8 µg/mL (≈ 12.2 µM) | 0.15 µg/mL (≈ 0.482 µM) | 0.41 µg/mL (≈ 1.32 µM) | 0.46 µg/mL (≈ 1.48 µM)
[O-][n+]1nc(NC2CCCC2)[n+]([O-])c2ccc(Br)cc21 | 110 | 18 µg/mL (≈ 55.4 µM) | 0.15 µg/mL (≈ 0.461 µM) | 0.46 µg/mL (≈ 1.41 µM) | 0.35 µg/mL (≈ 1.08 µM)
[O-][n+]1nc(N[C@@H]2C[C@H]3CC[C@@H]2C3)[n+]([O-])c2ccc(Br)cc21 | 2.6 | 0.8 µg/mL (≈ 2.28 µM) | 0.31 µg/mL (≈ 0.883 µM) | 0.41 µg/mL (≈ 1.17 µM) | 0.36 µg/mL (≈ 1.03 µM)
CCNc1n[n+]([O-])c2cc(OC)ccc2[n+]1[O-] | 6.3 |  | 2.5 µg/mL (≈ 10.6 µM) | 16 µg/mL (≈ 67.7 µM) | 15 µg/mL (≈ 63.5 µM)
COc1ccc2c(c1)[n+]([O-])nc(NC1CCC1)[n+]2[O-] | 16 | 9.8 µg/mL (≈ 37.4 µM) | 0.62 µg/mL (≈ 2.36 µM) | 0.9 µg/mL (≈ 3.43 µM) | 0.96 µg/mL (≈ 3.66 µM)
COc1ccc2c(c1)[n+]([O-])nc(N[C@@H]1C[C@H]3CC[C@@H]1C3)[n+]2[O-] | >80 | > 50 µg/mL | 0.62 µg/mL (≈ 2.05 µM) | 1.6 µg/mL (≈ 5.29 µM) | 0.97 µg/mL (≈ 3.21 µM)
Cc1cccc2c1[n+]([O-])c(NC1CCC1)n[n+]2[O-] | 70 | 22 µg/mL (≈ 89.3 µM) | 0.31 µg/mL (≈ 1.26 µM) | 0.43 µg/mL (≈ 1.75 µM) | 0.47 µg/mL (≈ 1.91 µM)
Cc1cccc2c1[n+]([O-])c(NC1CCCC1)n[n+]2[O-] | 12 | 3.7 µg/mL (≈ 14.2 µM) | 0.31 µg/mL (≈ 1.19 µM) | 0.27 µg/mL (≈ 1.04 µM) | 0.43 µg/mL (≈ 1.65 µM)
[O-][n+]1nc(N[C@@H]2C[C@H]3CC[C@@H]2C3)[n+]([O-])c2cc3c(cc21)CCC3 | >41 | > 50 µg/mL | 1.2 µg/mL (≈ 3.84 µM) | 0.36 µg/mL (≈ 1.15 µM) | 0.93 µg/mL (≈ 2.98 µM)
COc1cc2c(cc1C)[n+]([O-])nc(NC1CCC1)[n+]2[O-] | >20 | > 50 µg/mL | 2.5 µg/mL (≈ 9.05 µM) | 2.9 µg/mL (≈ 10.5 µM) | 5.1 µg/mL (≈ 18.5 µM)
[O-][n+]1nc(N2CCOCC2)[n+]([O-])c2ccccc21 | 2.2 | 5.4 µg/mL (≈ 21.8 µM) | 2.5 µg/mL (≈ 10.1 µM) | 19 µg/mL (≈ 76.5 µM) | 3.7 µg/mL (≈ 14.9 µM)
C[C@@H](Nc1n[n+]([O-])c2ccccc2[n+]1[O-])C1CCCCC1 | 7.1 | 8.9 µg/mL (≈ 30.9 µM) | 1.2 µg/mL (≈ 4.16 µM) | 0.36 µg/mL (≈ 1.25 µM) | 0.92 µg/mL (≈ 3.19 µM)
CCN(CC)c1n[n+]([O-])c2ccccc2[n+]1[O-] | 40 | 12 µg/mL (≈ 51.2 µM) | 0.31 µg/mL (≈ 1.32 µM) | 1.3 µg/mL (≈ 5.55 µM) | 0.46 µg/mL (≈ 1.96 µM)
[O-][n+]1nc(NC2CCCCC2)[n+]([O-])c2ccccc21 | 3.6 | 8.9 µg/mL (≈ 34.2 µM) | 2.5 µg/mL (≈ 9.6 µM) | 0.75 µg/mL (≈ 2.88 µM) | 3.8 µg/mL (≈ 14.6 µM)
O=C(Cn1ccnc1[N+](=O)[O-])NCCO [ETANIDAZOLE] |  | > 16 µg/mL | > 10 µg/mL | 26 µg/mL (≈ 121 µM) | > 32 µg/mL
Cc1ncc([N+](=O)[O-])n1CCO [METRONIDAZOLE] |  | > 16 µg/mL | > 10 µg/mL | 11 µg/mL (≈ 64.3 µM) | > 32 µg/mL
